# Measurements: patent publication US20230117034A1, “PYRAZOLOTRIAZINES” (Bayer Aktiengesellschaft, priority 2019, published 2023)
# pIC50: −log10 of the molar value.
# Key:
# CDK12/CycK = CDK12/CycK (Homo sapiens, UniProt Q9NYV4); test: CDK12/CycK high ATP kinase assay (TR-FRET, 2 mM ATP); format: biochemical; conditions: 2 mM ATP (high ATP); median; read-out: CDK12/CyclinK, 2 mM ATP (high ATP), IC50-[mol/l] (median)
# Summary of the method: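 His-tagged human CDK12/CycK (~0.75 nM) pre-incubated 15 min with compound, then 60 min at 22 °C with 2 mM ATP and 1 µM biotinylated peptide (HEPES pH 7.5, 20 mM MgCl2). EDTA stop; phospho-Ser62 antibody/Eu anti-rabbit and streptavidin-XL665 TR-FRET, 665/620 nm ratio normalised to give IC50.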
# CDK2/CycE = molecular target: T1, CDK2/CycE (Homo sapiens, UniProt P24941); test: CDK2/CycE kinase assay (TR-FRET, 2 mM ATP); format: biochemical; conditions: 2 mM ATP (high ATP); median; read-out: CDK2/CyclinE, 2 mM ATP (high ATP), IC50 (median)
# T1 construct: purchased ProQinase GmbH (Freiburg, Germany); host or cells: insect cells (Sf9)
# Summary of the method: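 GST-tagged human CDK2 and CycE from Sf9 cells, about 10 ng/ml, pre-incubated 15 min at 22 °C with compound in Tris/HCl pH 8.0 buffer. Reaction with 2 mM ATP and 0.75 µM biotinylated peptide for 25 min at 22 °C. Phospho-RB antibody TR-FRET (665/620 nm ratio) read after 1 h; data normalised to no-inhibitor and no-enzyme controls.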
# Chain of CDK12/CycK (Q9NYV4 with tags, fused parts or gaps): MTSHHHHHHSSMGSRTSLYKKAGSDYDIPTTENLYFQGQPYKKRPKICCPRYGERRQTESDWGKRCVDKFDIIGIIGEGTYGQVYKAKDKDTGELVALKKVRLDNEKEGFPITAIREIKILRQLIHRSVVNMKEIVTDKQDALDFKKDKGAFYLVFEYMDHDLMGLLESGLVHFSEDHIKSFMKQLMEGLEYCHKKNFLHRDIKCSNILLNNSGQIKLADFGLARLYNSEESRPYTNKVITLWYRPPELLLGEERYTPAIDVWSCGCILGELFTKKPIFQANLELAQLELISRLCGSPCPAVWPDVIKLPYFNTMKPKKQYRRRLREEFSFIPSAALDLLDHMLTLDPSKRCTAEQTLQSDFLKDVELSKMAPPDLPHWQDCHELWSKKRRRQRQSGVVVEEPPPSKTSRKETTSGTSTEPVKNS
# Chain of CDK12/CycK (O75909 1-300 partner limits assumed): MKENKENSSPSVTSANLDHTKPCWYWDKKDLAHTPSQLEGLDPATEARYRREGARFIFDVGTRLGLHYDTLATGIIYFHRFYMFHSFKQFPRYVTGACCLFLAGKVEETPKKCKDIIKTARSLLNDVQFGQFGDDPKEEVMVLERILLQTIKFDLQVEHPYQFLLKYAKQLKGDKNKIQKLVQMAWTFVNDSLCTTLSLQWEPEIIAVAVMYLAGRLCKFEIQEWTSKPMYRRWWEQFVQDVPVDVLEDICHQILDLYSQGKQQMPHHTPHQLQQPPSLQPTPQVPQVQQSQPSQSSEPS
Compound,pIC50 (CDK12/CycK),pIC50 (CDK2/CycE)
"COc1cccc2[nH]c(CNc3nc(N4C[C@@H](C)N[C@@H](C)C4)nc4c(C5CC5)cnn34)nc12 [Example 212, 8-cyclopropyl-2-[(3R,5S)-3,5-dimethylpiperazin-1-yl]-N-[(4-methoxy-1H-benzimidazol-2-yl)methyl]pyrazolo[1,5-a][1,3,5]triazin-4-amine]",5.38,< 4.72
"Fc1ccc2[nH]c(CNc3nc(N4CCNCC4)nc4c(C5CC5)cnn34)nc2c1F [Example 174, 8-cyclopropyl-N-[(4,5-difluoro-1H-benzimidazol-2-yl)methyl]-2-(piperazin-1-yl)pyrazolo[1,5-a][1,3,5]triazin-4-amine]",5.92,< 4.70
"CO[C@H]1CCN(c2nc(NCc3nc4ccccc4[nH]3)n3ncc(Br)c3n2)C1 [Example 222, N-[(1H-benzimidazol-2-yl)methyl]-8-bromo-2-[(3S)-3-methoxypyrrolidin-1-yl]pyrazolo[1,5-a][1,3,5]triazin-4-amine]",5.22,4.84
"Cc1ccc2[nH]c(CNc3nc(N4C[C@H]5C[C@@H]4CO5)nc4c(C5CC5)cnn34)nc2c1 [Example 196, 8-cyclopropyl-N-[(5-methyl-1H-benzimidazol-2-yl)methyl]-2-[(1R,4R)-2-oxa-5-azabicyclo[2.2.1]heptan-5-yl]pyrazolo[1,5-a][1,3,5]triazin-4-amine]",4.81,< 4.70
"CN1CC[C@@H]2CN(c3nc(NCc4nc5ccccc5[nH]4)n4ncc(Br)c4n3)C[C@@H]21 [Example 217, N-[(1H-benzimidazol-2-yl)methyl]-8-bromo-2-[(3aR,6aR)-1-methylhexahydropyrrolo[3,4-b]pyrrol-5 (1H)-yl]pyrazolo[1,5-a][1,3,5]triazin-4-amine]",< 4.70,< 4.70
"COc1cccc2[nH]c(CNc3nc(N4CCOCC4)nc4c(C5CC5)cnn34)nc12 [Example 213, 8-cyclopropyl-N-[(4-methoxy-1H-benzimidazol-2-yl)methyl]-2-morpholino-pyrazolo[1,5-a][1,3,5]triazin-4-amine]",5.98,5.26
"Cc1ccc2[nH]c(CNc3nc(N4CCN(C)CC4)nc4c(C5CC5)cnn34)nc2c1 [Example 210, 8-cyclopropyl-N-[(5-methyl-1H-benzimidazol-2-yl)methyl]-2-(4-methylpiperazin-1-yl)pyrazolo[1,5-a][1,3,5]triazin-4-amine]",< 4.70,< 4.70
"CC(C)c1cnn2c(NCc3nc4ccccc4[nH]3)nc(Nc3ccncc3)nc12 [Example 14, N^4-[(1H-benzimidazol-2-yl)methyl]-8-(propan-2-yl)-N^2-(pyridin-4-yl)pyrazolo[1,5-a][1,3,5]triazine-2,4-diamine]",< 4.79,< 4.70
"Fc1ccc2[nH]c(CNc3nc(N4CCOCC4)nc4c(C5CC5)cnn34)nc2c1 [Example 181, 8-cyclopropyl-N-[(5-fluoro-1H-benzimidazol-2-yl)methyl]-2-(morpholin-4-yl)pyrazolo[1,5-a][1,3,5]triazin-4-amine]",5.72,< 4.70
"COc1cccc2[nH]c(CNc3nc(N4C[C@H]5C[C@@H]4CO5)nc4c(C5CC5)cnn34)nc12 [Example 198, 8-cyclopropyl-N-[(4-methoxy-1H-benzimidazol-2-yl)methyl]-2-[(1R,4R)-2-oxa-5-azabicyclo[2.2.1]heptan-5-yl]pyrazolo[1,5-a][1,3,5]triazin-4-amine]",5.13,5.00
"C[C@@H]1CN(c2nc(NCc3nc4cc(F)ccc4[nH]3)n3ncc(C4CC4)c3n2)C[C@H](C)N1 [Example 175, 8-cyclopropyl-2-[(3R,5S)-3,5-dimethylpiperazin-1-yl]-N-[(5-fluoro-1H-benzimidazol-2-yl)methyl]pyrazolo[1,5-a][1,3,5]triazin-4-amine]",4.96,< 4.70
"Cc1ccc2[nH]c(CNc3nc(N4C[C@@H](C)N[C@@H](C)C4)nc4c(Br)cnn34)nc2c1 [Example 209, 8-bromo-2-[(3R,5S)-3,5-dimethylpiperazin-1-yl]-N-[(5-methyl-1H-benzimidazol-2-yl)methyl]pyrazolo[1,5-a][1,3,5]triazin-4-amine]",5.17,< 4.70
"Brc1cnn2c(NCc3nc4ccccc4[nH]3)nc(N3CC4CCC(C3)N4)nc12 [Example 232, N-(1H-benzimidazol-2-ylmethyl)-8-bromo-2-(3,8-diazabicyclo[3.2.1]octan-3-yl)pyrazolo[1,5-a][1,3,5]triazin-4-amine]",5.28,5.54
"COc1cccc2[nH]c(CNc3nc(N4CCN(C)CC4)nc4c(C5CC5)cnn34)nc12 [Example 197, 8-cyclopropyl-N-[(4-methoxy-1H-benzimidazol-2-yl)methyl]-2-(4-methylpiperazin-1-yl)pyrazolo[1,5-a][1,3,5]triazin-4-amine]",5.02,4.87
"Cc1ccc2[nH]c(CNc3nc(N4CCNCC4)nc4c(Br)cnn34)nc2c1 [Example 204, 8-bromo-N-[(5-methyl-1H-benzimidazol-2-yl)methyl]-2-(piperazin-1-yl)pyrazolo[1,5-a][1,3,5]triazin-4-amine]",5.36,4.96
"C[C@@H]1CN(c2nc(NCc3nc4c(F)cccc4[nH]3)n3ncc(C4CC4)c3n2)C[C@H](C)N1 [Example 186, 8-cyclopropyl-2-[(3R,5S)-3,5-dimethylpiperazin-1-yl]-N-[(4-fluoro-1H-benzimidazol-2-yl)methyl]pyrazolo[1,5-a][1,3,5]triazin-4-amine]",5.57,< 4.70
"Cc1cc(-c2cnn3c(NCc4nc5ccccc5[nH]4)nc(N4CCN(C)CC4)nc23)ccn1 [Example 243, N-[(1H-benzimidazol-2-yl)methyl]-2-(4-methylpiperazin-1-yl)-8-(2-methylpyridin-4-yl)pyrazolo[1,5-a][1,3,5]triazin-4-amine]",< 4.70,< 4.70
"CCNc1nc(NCc2nc3ccccc3[nH]2)n2ncc(Br)c2n1 [Example 227, N4-(1H-benzimidazol-2-ylmethyl)-8-bromo-N2-ethyl-pyrazolo[1,5-a][1,3,5]triazine-2,4-diamine]",5.02,5.73
"CN1CC2CCC1CN2c1nc(NCc2nc3ccccc3[nH]2)n2ncc(Br)c2n1 (centres unmarked) [Example 221, N-(1H-benzimidazol-2-ylmethyl)-8-bromo-2-(5-methyl-2,5-diazabicyclo[2.2.2]octan-2-yl)pyrazolo[1,5-a][1,3,5]triazin-4-amine]",5.10,5.30
"Cc1ccc2[nH]c(CNc3nc(N4C[C@@H]5CCCN[C@@H]5C4)nc4c(Br)cnn34)nc2c1 [Example 203, 8-bromo-N-[(5-methyl-1H-benzimidazol-2-yl)methyl]-2-[(4aS, 7aS)-octahydro-6H-pyrrolo[3,4-b]pyridin-6-yl]pyrazolo[1,5-a][1,3,5]triazin-4-amine]",5.06,5.03
"OCCNc1nc(NCc2nc3ccccc3[nH]2)n2ncc(Br)c2n1 [Example 228, 2-[(4-{[(1H-benzimidazol-2-yl)methyl]amino}-8-bromopyrazolo[1,5-a][1,3,5]triazin-2-yl)amino]ethan-1-ol]",< 4.70,5.04
"OC1(C(F)(F)F)CCN(c2nc(NCc3nc4ccccc4[nH]3)n3ncc(Br)c3n2)C1 (centres unmarked) [Example 200, 1-[4-(1H-benzimidazol-2-ylmethylamino)-8-bromo-pyrazolo[1,5-a][1,3,5]triazin-2-yl]-3-(trifluoromethyl)pyrrolidin-3-ol]",5.36,5.33
"CN1CCN(c2nc(NCc3nc4ccccc4[nH]3)n3ncc(Br)c3n2)CC1 [Example 18, N-[(1H-benzimidazol-2-yl)methyl]-8-bromo-2-(4-methylpiperazin-1-yl)pyrazolo[1,5-a][1,3,5]triazin-4-amine]",< 4.80,5.20
"CN(CCO)c1nc(NCc2nc3ccccc3[nH]2)n2ncc(Br)c2n1 [Example 237, 2-[(4-{[(1H-benzimidazol-2-yl)methyl]amino}-8-bromopyrazolo[1,5-a][1,3,5]triazin-2-yl)(methyl)amino]ethan-1-ol]",5.13,5.31
"Cc1ccc2[nH]c(CNc3nc(N4C[C@H]5C[C@@H]4CO5)nc4c(Br)cnn34)nc2c1 [Example 192, 8-bromo-N-[(5-methyl-1H-benzimidazol-2-yl)methyl]-2-[(1R,4R)-2-oxa-5-azabicyclo[2.2.1]heptan-5-yl]pyrazolo[1,5-a][1,3,5]triazin-4-amine]",5.07,5.38
